Experiments:
Human GLP-1R-GFP (human) [1] = biological target: Human GLP-1R-GFP (human) (UniProt P43220)
[2] = biological target: Human GIPR-turbo GFP (human) (UniProt P48546)
Human GLP-1R-GFP (human) [3] = biological target: Human GLP-1R-GFP (human) (UniProt P43220); remark: listed apart in the source
[4] = biological target: Human GIPR-turbo GFP (human) (UniProt P48546); remark: listed apart in the source
human GLP-1R [5] = biological target: T1, human GLP-1R (Homo sapiens, UniProt P43220); test: cAMP assay (CAMYEL BRET sensor), GLP-1R; assay type: cell-based; details: CAMYEL sensor, no IBMX, mean ± SEM, at least 3 experiments, SEM
T1 construct: host or cells: HEK293T
T1 sequence (P43220 24-463): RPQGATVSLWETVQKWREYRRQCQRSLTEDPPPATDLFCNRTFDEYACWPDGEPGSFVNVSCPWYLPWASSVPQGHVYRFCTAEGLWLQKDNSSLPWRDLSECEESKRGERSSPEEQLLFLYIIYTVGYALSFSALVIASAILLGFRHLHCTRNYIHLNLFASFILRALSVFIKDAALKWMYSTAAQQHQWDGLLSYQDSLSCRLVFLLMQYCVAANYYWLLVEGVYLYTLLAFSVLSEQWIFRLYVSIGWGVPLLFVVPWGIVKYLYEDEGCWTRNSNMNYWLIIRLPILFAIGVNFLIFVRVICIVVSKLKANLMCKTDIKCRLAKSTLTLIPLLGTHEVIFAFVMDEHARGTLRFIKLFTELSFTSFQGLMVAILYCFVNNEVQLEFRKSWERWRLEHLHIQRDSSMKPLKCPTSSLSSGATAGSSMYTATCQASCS
Procedure: (§1) The cells were seeded (700,000 cells/well) in 6-well plates and incubated to ∼70% confluency in complete media supplemented with 10% FBS and 1% Pen-Strep. […] Baseline measurements were taken after 5 min of incubation with coelenterazine-h or NanoGlo. The cells were then treated with a vehicle or the respective agonists. […] The temporal data of the vehicle-corrected agonist measurement was then normalized to the baseline reading of the same well. The first BRET reading following treatment with agonist/vehicle was the subsequent measurement after the zero time point. Positive or negative incremental areas under the curves (+iAUC/-iAUC) were calculated where noted. Each experiment was independently performed at least three times, with at least two technical replicates for each group.
(§2) CAMYEL, a cAMP sensor using YFP-Epac-RLuc was utilized to quantify cAMP accumulation with the temporal resolution. Then, 500 ng of CAMYEL DNA was co-transfected with 500 ng of DNA of untagged GLP-1R or GIPR per well in a 6-well plate. The experiments were performed in the absence of 3-isobutyl-1-methylxanthine (IBMX).
(§3) Data are represented as means ± S.E.M. Each experiment was independently conducted at least three times, each with at least two technical replicates. […] Dose responses were fitted using non-linear regression. pEC50 and EC50 values were calculated using GraphPad Prism 8.0 (GraphPad, San Diego, CA, USA). Statistical analyses were calculated in GraphPad 8.0 using one-way analysis of variance (ANOVA) and corrected with Tukey's or Bonferroni's multiple comparison test. Differences are considered significant with an adjusted p value < 0.05.

human GLP-1R [6] = biological target: T1, human GLP-1R; test: Gαq (mini-G) recruitment BRET assay, GLP-1R; assay type: cell-based; details: HEK293T, GLP-1R-GFP + NLuc-mini-G, +iAUC 60 min
human GLP-1R [7] = biological target: T1, human GLP-1R; test: GPCR internalization assay (loss of BRET with Venus-KRAS), GLP-1R; assay type: cell-based; details: HEK293T, hGLP-1R-Rluc8 + Venus-KRAS, iAUC 60 min
human GLP-1R [8] = biological target: T1, human GLP-1R; test: β-arrestin 1 recruitment BRET assay, GLP-1R; assay type: cell-based; details: HEK293T, GLP-1R-GFP + β-arrestin1-RLUC8, BRET, +iAUC 30 min
Procedure: as §1
(§4) Co-localization of β-arrestin1/2-RLUC8 with GLP-1R-GFP or GIPR-GFP was assessed.
as §3, with “Differences are considered significant with an adjusted p value < 0.05.” left out

human GLP-1R [9] = biological target: T1, human GLP-1R; test: β-arrestin 2 recruitment BRET assay, GLP-1R; assay type: cell-based; details: HEK293T, GLP-1R-GFP + β-arrestin2-RLUC8, BRET, +iAUC 30 min
Procedure: as §1, §4
as §3, with “Differences are considered significant with an adjusted p value < 0.05.” left out

human GLP-1R [10] = biological target: T1, human GLP-1R; test: Gαs (mini-G) recruitment BRET assay, GLP-1R; assay type: cell-based; details: HEK293T, GLP-1R-GFP + NLuc-mini-G, +iAUC 60 min
human GIPR [11] = biological target: T2, human GIPR (Homo sapiens, UniProt P48546); test: cAMP assay (CAMYEL BRET sensor), GIPR; assay type: cell-based; details: HEK293T, GIPR, CAMYEL sensor, no IBMX, +iAUC 25 min
T2 sequence (P48546 22-466): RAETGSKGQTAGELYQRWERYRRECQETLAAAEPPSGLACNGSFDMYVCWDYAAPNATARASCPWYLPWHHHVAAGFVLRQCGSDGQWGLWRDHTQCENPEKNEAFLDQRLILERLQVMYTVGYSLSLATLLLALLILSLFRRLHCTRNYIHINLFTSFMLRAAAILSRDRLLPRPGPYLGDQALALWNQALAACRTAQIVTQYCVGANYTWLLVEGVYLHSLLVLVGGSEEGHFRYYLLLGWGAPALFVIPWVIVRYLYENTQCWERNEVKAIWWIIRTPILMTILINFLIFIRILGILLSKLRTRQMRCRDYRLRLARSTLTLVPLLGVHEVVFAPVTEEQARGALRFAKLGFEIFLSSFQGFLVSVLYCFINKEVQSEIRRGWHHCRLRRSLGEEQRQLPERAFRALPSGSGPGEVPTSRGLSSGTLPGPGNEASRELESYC
Procedure: as §1, §2, §3

human GIPR [12] = biological target: T2, human GIPR; test: Gαq (mini-G) recruitment BRET assay, GIPR; assay type: cell-based; details: HEK293T, GIPR-GFP + NLuc-mini-G, +iAUC 60 min
human GIPR [13] = biological target: T2, human GIPR; test: GPCR internalization assay (loss of BRET with Venus-KRAS), GIPR; assay type: cell-based; details: HEK293T, hGIPR-Rluc8 + Venus-KRAS, iAUC 20 min
human GIPR [14] = biological target: T2, human GIPR; test: β-arrestin 1 recruitment BRET assay, GIPR; assay type: cell-based; details: HEK293T, GIPR-GFP + β-arrestin1-RLUC8, BRET, +iAUC 30 min
Procedure: as §1, §4, §3

human GIPR [15] = biological target: T2, human GIPR; test: β-arrestin 2 recruitment BRET assay, GIPR; assay type: cell-based; details: HEK293T, GIPR-GFP + β-arrestin2-RLUC8, BRET, +iAUC 30 min
Procedure: as §1, §4, §3

human GIPR [16] = biological target: T2, human GIPR; test: Gαs (mini-G) recruitment BRET assay, GIPR; assay type: cell-based; details: HEK293T, GIPR-GFP + NLuc-mini-G, +iAUC 60 min
[17] = HEK-293T, mean ± SEM, at least 3 experiments, SEM
[18] = read-out: Receptor Internalization EC50
[19] = read-out: β-arr1 Recruitment EC50
[20] = read-out: β-arr2 Recruitment EC50

Chain of Human GLP-1R-GFP (human) (P43220 24-463): as the sequence (P43220 24-463) above

Work on MAR709 (peptide) yielded a GLP-1R internalization Emax, % of GLP-1 (7–36 amide) (loss of BRET between hGLP-1R-Rluc8 and Venus-KRAS, HEK293T) (Human GLP-1R-GFP (human) [1]) of 51%, a GIPR internalization Emax, % of GIP (1–42) (loss of BRET between hGIPR-Rluc8 and Venus-KRAS, HEK293T) [2] of 4% and a GLP-1R co-localization with Rab5 early endosomes (BRET of hGLP-1R-Rluc8 with Venus-Rab5, HEK293T), 1 μM, % of GLP-1 (7–36 amide) (Human GLP-1R-GFP (human) [3]) of 68%. For the same compound, the GLP-1R co-localization with Rab7 late endosomes (BRET of hGLP-1R-Rluc8 with Venus-Rab7, HEK293T), % of GLP-1 (7–36 amide) (Human GLP-1R-GFP (human) [3]) was 62% and the GIPR co-localization with Rab5^+ endosomes (BRET of hGIPR-Rluc8 with Venus-Rab5, HEK293T), % of the response to GIP (1–42), fatty acyl-GIP and tirzepatide [4] was 66%.
Work on `CCCCCCCCCCCCCCCC(=O)NCCCC[C@H](NC(=O)[C@H](CO)NC(=O)[C@@H]1CCCN1C(=O)[C@@H]1CCCN1C(=O)[C@@H]1CCCN1C(=O)[C@H](C)NC(=O)CNC(=O)[C@H](CO)NC(=O)[C@H](CO)NC(=O)[C@@H]1CCCN1C(=O)CNC(=O)CNC(=O)[C@H](C)NC(=O)[C@H](CC(C)C)NC(=O)[C@H](CC(C)C)NC(=O)[C@H](Cc1c[nH]c2ccccc12)NC(=O)[C@H](CC(N)=O)NC(=O)[C@@H](NC(=O)[C@H](Cc1ccccc1)NC(=O)[C@H](CCC(=O)O)NC(=O)C(C)(C)NC(=O)[C@H](C)NC(=O)[C@H](C)NC(=O)[C@H](CCC(N)=O)NC(=O)[C@H](CCCCN)NC(=O)[C@H](CC(=O)O)NC(=O)[C@H](CC(C)C)NC(=O)[C@H](Cc1ccc(O)cc1)NC(=O)[C@@H](NC(=O)[C@H](CO)NC(=O)[C@@H](NC(=O)[C@H](CC(=O)O)NC(=O)[C@H](CO)NC(=O)[C@@H](NC(=O)[C@H](Cc1ccccc1)NC(=O)[C@@H](NC(=O)CNC(=O)[C@H](CCC(=O)O)NC(=O)C(C)(C)NC(=O)[C@@H](N)Cc1c[nH]cn1)[C@@H](C)O)[C@@H](C)O)C(C)C)[C@@H](C)CC)C(C)C)C(N)=O` [fatty acyl-GLP-1] yielded an EC50 (human GLP-1R [5]; HEK293T, GLP-1R, +iAUC 25 min, read-out: cAMP pEC50 (converted)) of 0.363 nM, an Emax (human GLP-1R [5]; HEK-293T, HEK293T transiently expressing untagged GLP-1R, +iAUC of 25 min response, 3-parameter fit) of 99 ± 3% and an EC50 (human GLP-1R [6]) of 305 nM. For the same compound, the Emax (human GLP-1R [6]; [17]) was 101 ± 5%, the EC50 (human GLP-1R [7]; [18]) was 490 nM and the Emax (human GLP-1R [7]; HEK-293T, mean ± SEM, at least 3 experiments, SEM, read-out: Receptor Internalization Emax (% GLP-1)) was 108 ± 4%. The EC50 (human GLP-1R [8]; [19]) was 358 nM, the Emax (human GLP-1R [8]; HEK-293T, mean ± SEM, at least 3 experiments, SEM, read-out: β-arr1 Recruitment Emax (% GLP-1)) was 88 ± 4% and the EC50 (human GLP-1R [9]; [20]) was 188 nM. It also gave an Emax (human GLP-1R [9]; HEK-293T, mean ± SEM, at least 3 experiments, SEM, read-out: β-arr2 Recruitment Emax (% GLP-1)) of 86 ± 3%, an EC50 (human GLP-1R [10]) of 423 nM and an Emax (human GLP-1R [10]; [17]) of 98 ± 5%. The EC50 (human GIPR [11]; mean ± SEM, read-out: cAMP pEC50 (converted)) was > 1000 nM, the EC50 (human GIPR [11]; read-out: cAMP EC50) was > 1000 nM and the EC50 (human GIPR [12]; mean ± SEM, read-out: Gαq Recruitment pEC50 (converted)) was > 1000 nM. The EC50 (human GIPR [12]; read-out: Gαq Recruitment EC50) was > 1000 nM, the EC50 (human GIPR [13]; mean ± SEM, read-out: Receptor Internalization pEC50 (converted)) was > 1000 nM and the EC50 (human GIPR [13]; [18]) was > 1000 nM. For the same compound, the EC50 (human GIPR [14]; [19]) was > 1000 nM, the EC50 (human GIPR [14]; read-out: β-arr1 Recruitment pEC50 (converted)) was > 1000 nM and the EC50 (human GIPR [15]; mean ± SEM, read-out: β-arr2 Recruitment pEC50 (converted)) was > 1000 nM. For the same compound, the EC50 (human GIPR [15]; [20]) was > 1000 nM, the EC50 (human GIPR [16]; mean ± SEM, read-out: Gαs Recruitment pEC50 (converted)) was > 1000 nM and the EC50 (human GIPR [16]; read-out: Gαs Recruitment EC50) was > 1000 nM.

Source: article PMC7921015, “Spatiotemporal GLP-1 and GIP receptor signaling and trafficking/recycling dynamics induced by selected receptor mono- and dual-agonists” (Molecular Metabolism, 2021)
